Test results from patent US9677051B2, “Erythroid production” (The Common Services Agency, priority 2012, dated 2017).
“Also recorded” adds a separate entry of the source.

Experiments:
[1] = system: human pluripotent stem cells (hPSC); test: erythroid differentiation culture of hPSCs, overall cell amplification; assay type: cell-based; settings: for cell amplification, combination of GSK3β inhibitor and IBMX: GSK3 inhibitor combined with IBMX; for quality and quantity of erythrocytic cells produced: GSK3β inhibitor day 0 to day 3, used along with Wnt3a; for replacement of recombinant Wnt3A by GSK3β inhibitor: added during day 0 to day 3 of the differentiation protocol; for potency: concentration of GSK3β inhibitor: early stage of differentiation; for overall amplification of differentiating erythropoietic cultures, side by side comparison: Table 1, addition of GSK3β inhibitors, IBMX or both; for expansion in cell number / yield of differentiated cells: prolonged treatment d0 to d5, iPSC or hESC; for rate of cell amplification in the late stage of the method: SR1 1 μM at day 5, SC1 500 nM at day 14 and 250 nM at day 16
Description: (§1) The human pluripotent stem cells (hPSC) are maintained undifferentiated in Stempro medium (Life Technologies) on Cellstart (Life Technologies) and passaged approximately every 7 days, depending on their confluence, using the EZpassage tool (Life Technologies).
(§2) For differentiation, confluent hPSC are cut into squares with the EZpassage tool (Life Technologies) and plated at 500×10^3/well on Ultra low adherence six well plates (Corning) in 3 ml/well of Stemline II (Sigma) to allow them to form embryoid bodies (EBs).
(§3) On day 0 in order to induce differentiation, the following cytokines are added: Bone Morphogenic Protein 4 (BMP4) (10 ng/ml), Vascular Endothelium Growth Factor 165 (VEGF) (10 ng/ml), Wnt3A (and/or Wnt5A) (10 ng/ml), ActivinA (5 ng/ml) and Inhibitor VIII (2 μM). GSK3 Inhibitor VIII is a specific name for the Merck product (361549), it is also called AR-A014418 or N-(4-Methoxybenzyl)-N′-(5-nitro-1,3-thiazol-2-yl)urea
(§4) On day 2 of differentiation (48 hours old EBs), a new set of cytokines is added in 0.5 ml/well of Stemline II; BMP4 (20 ng/ml), VEGF (30 ng/ml), Wnt3A (and/or Wnt5A) (10 ng/ml), ActivinA (5 ng/ml), Inhibitor VIII (2 μM), Fibroblast Growth Factor α (FGFα) (10 ng/ml), Stem Cell Factor (SCF) (20 ng/ml) and β-Estradiol (0.4 ng/ml).
(§5) NB: Given cytokine concentrations are always the final concentrations of freshly added cytokines—e.g. when cells are fed rather than undergoing complete media change, we add 0.5 ml of 6× cytokines to 2.5 ml already in well to give final total volume of 3 ml with 1× cytokines.
On day 3 of differentiation the EBs are washed in PBS then dissociated using 1 ml/well TrypleSelect 10λ for 10 minutes at 37° C. After addition of 10 ml of PBS, cells are centrifuged for 3 minutes at 1200 rpm, the supernatant is discarded and the cells are resuspended in 3 ml fresh Stemline II and replated at 200×10^3/well of a regular six well tissue culture plate with the following cytokines: BMP4 (20 ng/ml), VEGF (30 ng/ml), FGFα (10 ng/ml), SCF (30 ng/ml), Insulin-like Growth Factor 2 (IGF2) (10 ng/ml), Thrombopoietin (TPO) (10 ng/ml), Heparin (5 ug/ml), Iso Butyl Methyl Xanthine (IBMX) 50 μM and β-Estradiol (0.4 ng/ml).
On day 5 of differentiation a fresh set of cytokines identical to day 3 is added in 0.5 ml/well of Stemline II such that final concentrations of fresh cytokines are those stated for day 3.
On day 7 of differentiation the cells are harvested, centrifuged 3 minutes at 1200 rpm and resuspended in fresh Stemline II medium supplemented with the same set of cytokines as day 3. If the number of cells is above 500×10^3, it is advisable to split the culture as any drastic depletion or major pH increase of the medium can have major repercussion on the differentiation efficiency.
From day 7 to day 10 of differentiation the cell density should be closely monitored in order to maintain the cell number under 10^6 per ml by adding fully supplemented media and splitting into additional wells if required.
On day 9 of differentiation a half dose of day 3 cytokines is added in 0.5 ml/well of Stemline II such that final concentrations of fresh cytokines are half those stated for day 3.
On day 10 of differentiation, the cells are centrifuged 3 minutes at 1200 rpm then re-plated in erythroid liquid culture conditions. i.e. the cells are plated at a density of 100×10^3 cells/well in 3 ml/well of Stemline II supplemented with the following cytokines: Hydrocortisone 10^−6M, SCF (50 ng/ml), Flt3-Ligand (Flt3L) (16.7 ng/ml), BMP4 (6.7 ng/ml), Interleukin 3 (IL3) (6.7 ng/ml), IL11 (6.7 ng/ml), IBMX (50 μM) and Erythropoietin (EPO) 1.3 U/ml.
From day 10 to day 17 (short protocol) or 21 (extended A phase protocol), the above cytokines are renewed every 2 days, added in 0.5 ml of Stemline II, such that final concentrations of fresh cytokines are those stated for day 10. […]

[2] = system: genes involved in erythropoiesis; test: qRT-PCR (Taqman) of genes involved in erythropoiesis in differentiating hPSCs; assay type: cell-based, human; settings: for expression of globin genes and other markers of definitive hematopoiesis (HBA, HBG, HBB, Runx1, Gata2, HoxB4) and erythropoiesis genes (HOXA9, CD36, NFE2) / necessary reduction in pluripotent markers: hiPSC or hESC, Inhibitor VIII and IBMX; for key molecular markers, mRNA expression: iPSC, InhVIII+IBMX, day 0, 10, 17 and 24
Text: At days 0, 10, 17 and 24 the expression of selected genes of interest by the differentiating cells was monitored by qRT-PCR (Taqman) The gene panel was selected to comprise genes known to be expressed at various stages of erythropoiesis in order to evaluate the degree of differentiation of the hPSCs.

[3] = system: differentiating hPSCs; test: morphology of differentiating cells, Rapid Romanovski staining of cytospin preparations; assay type: cell-based, human; settings: for sturdiness of cells, proneness to lysis: SR1 at day 5, SC1 at days 14 and 16
Description: At day 17 onward, the erythroid stage of the cells was determined assessment of morphology after Rapid Romanovski staining of cytospin preparations.

[4] = system: globins; test: HPLC analysis of globin protein expression profile of differentiated hPSCs; assay type: cell-based, human; settings: full differentiation process in presence of both GSK3β inhibitor and IBMX
Description: At day 24, 28 or onward the globin protein expression profile was analysed by High Pressure Liquid Chromatography to evaluate the level of switch from primitive to definitive hematopoiesis.

[5] = system: hESC line H1; test: erythroid differentiation culture of hESC line H1; assay type: cell-based, human; settings: H1 ESC differentiation
Description: as §1, §2
as §3, with “N-(4-Methoxybenzyl)-N′-(5-nitro-1,3-thiazol-2-yl)urea […]” for “N-(4-Methoxybenzyl)-N′-(5-nitro-1,3-thiazol-2-yl)urea”
(§6) From day 7 to day 10 of differentiation the cell density should be closely monitored in order to maintain the cell number under 10^6 per ml by adding fully supplemented media and splitting into additional wells if required. […]

[6] = system: RC9; test: erythroid differentiation culture of hESC line RC9; assay type: cell-based, human; settings: RC9 cell line
Description: as §1, §2
as §3, with “N-(4-Methoxybenzyl)-N′-(5-nitro-1,3-thiazol-2-yl)urea […]” for “N-(4-Methoxybenzyl)-N′-(5-nitro-1,3-thiazol-2-yl)urea”
as §6

[7] = system: iPSC; test: erythroid differentiation culture of iPSC; assay type: cell-based, human
Description: as §1, §2, §3, §4, §5
On day 3 of differentiation the EBs are washed in PBS then dissociated using 1 ml/well TrypleSelect 10λ for 10 minutes at 37° C. […]
as §6

Question: For O=C1Nc2cc(Br)ccc2/C1=C1/Nc2ccccc2/C1=N\O [BiO], which “cell amplification, combination of GSK3β inhibitor and IBMX” value [1] is on record?
Answer: does not have this effect

Question: Which “cell amplification, combination of GSK3β inhibitor and IBMX” value [1] does the source give for Cc1c[nH]c(-c2cnc(NCCNc3ccc(C#N)cn3)nc2-c2ccc(Cl)cc2Cl)n1 [CHIR99021] here?
Answer: synergistic

Question: And the “quality and quantity of erythrocytic cells produced” value [1]?
Answer: marked improvement

Question: And the “replacement of recombinant Wnt3A by GSK3β inhibitor” value [1]?
Answer: could not reproducibly replace Wnt3a

Question: And the “effect on hESC versus hiPSC lines” value ([1]; compared to Inhibitor VIII)?
Answer: stronger effect on hESC than hiPSC lines

Question: And the “potency: concentration of GSK3β inhibitor” value [1]?
Answer: 200 nM

Question: Which “cell amplification, combination of GSK3β inhibitor and IBMX” value [1] does the source give for CC(C)Cn1c(=O)n(C)c(=O)c2[nH]cnc21 [IBMX, 3-isobutyl-1-methylxanthine] here?
Answer: synergetic effect on cell amplification

Question: And the “expansion, cumulative fold amplification over time” value ([1]; H1 (hESC) or hiPSC, combinations of GSK3β inhibitors and IBMX)?
Answer: further increases expansion

Question: And the “cell numbers in the culture” value ([1]; IBMX added to culture)?
Answer: can increase cell numbers

Question: And the “overall amplification of differentiating erythropoietic cultures, side by side comparison” value [1]?
Answer: inconsistency. Results consistently show a positive effect of Inhibitor VIII and IBMX. The gain provided by a prolonged

Question: And the “stage of addition inducing maximum amplification” value ([1]; added to culture medium throughout day 3 and 17)?
Answer: most effective

Question: And the “expression of globin genes and other markers of definitive hematopoiesis (HBA, HBG, HBB, Runx1, Gata2, HoxB4) and erythropoiesis genes (HOXA9, CD36, NFE2)” value [2]?
Answer: increase expression

Question: And the “necessary reduction in pluripotent markers” value [2]?
Answer: do not affect

Question: What about the “key molecular markers, mRNA expression” value [2] of the same molecule?
Answer: Increase key molecular markers

Question: What about the “cells morphology and maturation” value ([3]; addition of IBMX and GSK3β inhibitors, compared to the control culture conditions) of the same molecule?
Answer: did not have any negative effect

Question: And the “morphological appearance of cells” value ([3]; combination of GSK3β inhibitor and IBMX)?
Answer: morphologically more intact and robust

Question: And the HPLC globin profile [4]?
Answer: almost similar to the cells of fetal origin

Question: COc1ccc(CNC(=O)Nc2ncc([N+](=O)[O-])s2)cc1 [Inhibitor VIII, N-(4-methoxybenzyl)-N′-(5-nitro-1,3-thiazol-2-yl)urea] was tested. Which “cell amplification, combination of GSK3β inhibitor and IBMX” value [1] did it give?
Answer: synergistic

Question: And the “quality and quantity of erythrocytic cells produced” value [1]?
Answer: marked improvement

Question: And the “overall amplification of differentiating erythropoietic cultures, side by side comparison” value [1]?
Answer: inconsistency. Results consistently show a positive effect of Inhibitor VIII and IBMX. The gain provided by a prolonged

Question: What about the “total fold amplification of erythroid differentiation culture” value ([1]; absence or presence of inhibitor VIII, hESC lines RC9 and H1, iPS line) of the same molecule?
Answer: increases cell numbers in multiple lines

Question: And the “replacement of recombinant Wnt3A by GSK3β inhibitor” value [1]?
Answer: could not reproducibly replace Wnt3a

Question: And the “potency: concentration of GSK3β inhibitor” value [1]?
Answer: 2000 nM

Question: And the “expansion in cell number / yield of differentiated cells” value [1]?
Answer: increases the yield of differentiated cells

Question: And the “expansion in cell number / yield of differentiated cells” value ([1]; listed as InhVIII)?
Answer: increases the expansion in cell number

Question: What about the “replacement of Activin A” value [5] of the same molecule?
Answer: can replace Activin A

Question: What about the “replacement of Activin A” value [6] of the same molecule?
Answer: wasn't observed

Question: What about the “replacement of Activin A” value ([7]; iPSC G cell line) of the same molecule?
Answer: wasn't observed

Question: What about the “expression of globin genes and other markers of definitive hematopoiesis (HBA, HBG, HBB, Runx1, Gata2, HoxB4) and erythropoiesis genes (HOXA9, CD36, NFE2)” value [2] of the same molecule?
Answer: increase expression

Question: And the “necessary reduction in pluripotent markers” value [2]?
Answer: do not affect

Question: And the “key molecular markers, mRNA expression” value [2]?
Answer: Increase key molecular markers

Question: What does the source list for Cc1cc(Nc2ncc3c(n2)N(C)C(=O)N(c2cc(NC(=O)c4cccc(C(F)(F)F)c4)ccc2C)C3)n(C)n1 [SC1]?
Answer: rate of cell amplification in the late stage of the method [1]: greater rate of cell amplification; also recorded: enhances or increases the rate of cell amplification; sturdiness of cells, proneness to lysis [3]: sturdier and less prone to lysis; also recorded: more “sturdy” and less prone lysis

Question: Which results are given for CC(C)n1cnc2c(NCCc3ccc(O)cc3)nc(-c3csc4ccccc34)nc21 [SR1]?
Answer: rate of cell amplification in the late stage of the method [1]: greater rate of cell amplification; also recorded: enhances or increases the rate of cell amplification; sturdiness of cells, proneness to lysis [3]: sturdier and less prone to lysis; also recorded: more “sturdy” and less prone to lysis

B1: Activin A: cytokine added at 5 ng/ml in the early stage of differentiation (protein, UniProt P08476 311-426, looked up)
Inhibin beta A chain: GLECDGKVNICCKKQFFVSFKDIGWNDWIIAPSGYHANYCEGECPSHIAGTSGSSLSFHSTVINHYRMRGHSPFANLKSCCVPTKLRPMSMLYYDDGQNIIKKDIQNMIVEECGCS
Question: Which results are given for B1?
Answer: effect of an increased dose on differentiation ([1]; data not shown): doesn't have any beneficial effect; differentiation efficiency in the absence of Activin A [6]: markedly hinders the differentiation efficiency; requirement for efficient differentiation ([7]; iPSC): required for efficient differentiation; differentiation efficiency in the absence of Activin A ([7]; iPSC G cell line): markedly hinders the differentiation efficiency
